These results are taken from patent US20210002649A1, “COMPOSITIONS AND METHODS FOR TREATING CANCER” (Beth Israel Deaconess Medical Center, Inc., priority 2018, published 2021).

The target in one assay is T1, WWP1 (Mus musculus, UniProt Q8BZZ3).
T1 construct: from tissue
As to the kind of experiment: Active CD8 T cell tumor infiltration, syngenic mice model. The class given is in vivo.

Assay [1] has as its system JAK-STAT, NF-kB, and TNFα pathway. As to the kind of experiment: RNA-seq analysis of immune suppressive pathways in Hi-Myc mice. The class given is in vivo. Particulars: I3C treated Hi-Myc mice, versus vehicle (FIGS. 17-20).
The subject of assay [2] is PD-L1 protein levels in WWP1 knock-out cells. The assay is described as follows: PD-L1 protein levels in WWP1 knock-out cells (gel image). The class given is cell-based. Conditions: MG132 treatment (FIG. 12).

Where a SMILES comes first, the peptide text is derived from it. The star is where a group is joined. Cbz = O=C(OCc1ccccc1)*

T1 sequence (Q8BZZ3 whole entry): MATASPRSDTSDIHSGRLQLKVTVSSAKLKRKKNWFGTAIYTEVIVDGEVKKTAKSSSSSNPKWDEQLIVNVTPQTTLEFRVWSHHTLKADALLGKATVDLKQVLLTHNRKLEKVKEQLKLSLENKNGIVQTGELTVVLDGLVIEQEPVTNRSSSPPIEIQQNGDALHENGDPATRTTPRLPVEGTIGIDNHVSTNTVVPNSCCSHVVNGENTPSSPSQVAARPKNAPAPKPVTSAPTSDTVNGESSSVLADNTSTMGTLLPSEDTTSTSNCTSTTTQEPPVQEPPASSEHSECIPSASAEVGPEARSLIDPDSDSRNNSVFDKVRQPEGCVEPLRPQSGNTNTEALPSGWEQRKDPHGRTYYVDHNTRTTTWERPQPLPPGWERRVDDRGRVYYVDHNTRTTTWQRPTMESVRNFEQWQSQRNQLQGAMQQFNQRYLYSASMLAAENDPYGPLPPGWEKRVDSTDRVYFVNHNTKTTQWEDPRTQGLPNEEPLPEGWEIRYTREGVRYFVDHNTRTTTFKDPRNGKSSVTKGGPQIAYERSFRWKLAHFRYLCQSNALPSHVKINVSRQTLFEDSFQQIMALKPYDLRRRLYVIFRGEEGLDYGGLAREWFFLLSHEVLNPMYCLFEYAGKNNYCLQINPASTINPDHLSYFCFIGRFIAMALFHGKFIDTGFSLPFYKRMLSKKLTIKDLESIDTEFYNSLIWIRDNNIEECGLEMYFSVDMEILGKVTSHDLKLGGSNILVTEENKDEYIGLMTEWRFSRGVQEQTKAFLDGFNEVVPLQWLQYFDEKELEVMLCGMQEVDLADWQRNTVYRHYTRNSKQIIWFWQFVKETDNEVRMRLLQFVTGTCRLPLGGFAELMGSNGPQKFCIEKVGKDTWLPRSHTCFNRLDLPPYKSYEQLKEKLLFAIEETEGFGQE

Turning to `OCc1c[nH]c2ccccc12` [I3C, indole-3-carbinol], on WWP1 (syngenic mice (FIG. 16)), the “active CD8 T cell tumor infiltration” value is “triggers active CD8 T cell tumor infiltration”. For the same molecule, the tumor size result at WWP1 (tumors, after WWP1 inhibition by I3C) is recorded as “reducing tumor size”. In addition, the “immune suppressive pathways (RNA-seq)” value in assay [1] was “down-regulation of multiple immune suppressive pathway (JAK-STAT, NF-kB, and TNFα pathway)”.

In the case of `CC(C)C[C@@H](C=O)NC(=O)[C@H](CC(C)C)NC(=O)[C@H](CC(C)C)NC(=O)OCc1ccccc1` [MG132] (Cbz-Leu-Leu-Leu-aldehyde), the PD-L1 protein levels entry in assay [2] is “restored PD-L1 protein levels”.
